Measurements: US7713923B2, “Self-assembling peptides incorporating modifications and methods of use thereof” (Massachusetts Institute of Technology, priority 2003, dated 2010)

Assays:
[1] = test system: human aortic endothelial cells (HAEC); test: Western blot of laminin 1 and collagen IV production by HAEC; format: cell-based; details: compared to conventional 2D tissue culture plates
Excerpt: Western blots. Harvested HAEC for each culture condition were counted and lysed with sample buffer (NP0007, Invitrogen, CA) containing 2% (v/v) β-mercaptoethanol and a cocktail of protease inhibitors (1836153, Complete Mini, Roche, Penzberg, Germany) to avoid proteolysis. Cell lysates were run on a 10% PAGE system in MOPS buffer (NP0301, NP0001 Invitrogen, CA), and proteins were transferred to PVDF membranes (LC2002, Invitrogen, CA) to perform western blots. Briefly, membranes were blocked with 2% BSA and 0.1% Triton-X 100 in PBS. Two primary antibodies were used: mouse monoclonal IgG, anti human laminin γ1 [laminin B2 chain] (1 μg/ml, B1920, Chemicon, CA) and mouse monoclonal IgG, anti human collagen IV [7S domain] (2 μg/ml, MAB3326, Chemicon, CA). A secondary antibody, goat polyclonal anti-mouse IgG-HRP conjugated (1:5000 dilution, sc-2302, Santa Cruz Biotechnology, CA) was used for detection by chemiluminescence (sc-2048, Santa Cruz Biotechnology, CA). Protein bands were visualized by exposure to an X-ray film (Biomax Film, Kodak, N.Y.).

[2] = test system: human aortic endothelial cells (HAEC); test: NO release determination (Griess method); format: cell-based; details: nitrite in culture supernatant; RAD16-I 100%, others 9:1 blend
Description: NO release determination. Nitric oxide (NO) release was estimated by measuring nitrites (NOx) by the Griess method. Briefly, the media was replaced after the third day of culture by new media without fetal bovine serum (FBS) or ascorbic acid. The next day, the media was used to analyze NO release using a commercially available kit (482702, Calbiochem, CA) following the manufacturer instructions. Each condition was tested in triplicate.

[3] = test system: human aortic endothelial cells (HAEC); test: HAEC monolayer formation on peptide scaffolds; format: cell-based; set-up: key to HAEC monolayer formation, peptide content 100% / HAEC monolayer formation, Blending (9:1): +: Score for optimal monolayer formation and cell survival; −: Score for poor or none monolayer formation and cell survival
Description: Endothelial cell culture system. Peptide scaffolds (0.5% w/v) were prepared at 100% peptide sequence for RAD16-I or blended with RAD16-I at a radio of 9:1 (RAD16-I: peptide sequence, on a volume/volume basis) for the three other cases (YIG, RYV, and TAG). Each solution was filtered (0.2 μm, Acrodysc filters, 4192, PALL, MI), loaded (30 μl) on top of a cell culture chamber insert (10 mm diameter, 136935, Nalge Nunc International, IL), and allowed to form a layer (average thickness=600 μm). Phosphate Buffer Saline (PBS) (600 μl) was added at the bottom of the well to induce hydrogel formation, and the system was incubated at room temperature for 30 min. PBS was replaced with culture medium, which was then replaced with fresh medium. The scaffolds were incubated for 1 hour with endothelial cell growth media (EGM-2, Cambrex, MD) in a cell culture incubator at 37° C. with 5% CO2.
(§1) Meanwhile, human aortic endothelial cells (HAEC) (CC-2535, Cambrex, MD) that had been maintained under standard culture conditions (passage 5-6) were harvested at 80% confluence using trypsin and loaded on top of the preformed peptide scaffolds at a cell density of 8×10^4 cells/cm^2 and cultured in the cell culture incubator at 37° C. with 5% CO2. Cell attachment assays were performed one hour after the initial cell loading. To perform the assays, the covering media was removed, and unattached cells were counted on a hematocytometer. Cell counting was performed by mechanically disrupting the scaffold containing cells by pipetting up and down and then counting cells on a hematocytometer after performing Trypan blue (T 9906, Sigma, MO) exclusion assay staining to assess cell viability. In some experiments, for comparison, EC were cultured on inserts coated with Matrigel or collagen (1.5 mg/ml, i.e. 0.15%) according to standard protocols.
In a first experiment, we tested the ability of HAEC to attach and form a monolayer when seeded on various peptide scaffolds generated by self-assembly of the peptides following addition of PBS to a 0.5%(w/v) solution of the peptide in water. […] HAEC cultured in the presence of scaffolds generated from peptides incorporating the other biologically active peptide motifs either died or formed isolated clusters (FIGS. 9A-9G).
We therefore decided to blend the peptides incorporating biologically active motifs with the prototypic RAD16-I sequence in order to reduce the overall concentration of the biologically active motif presented to cells. We selected a volume/volume ratio of 9:1 (RAD16-I:modified peptide sequence comprising biologically active peptide motif, where peptides were dissolved at equal concentrations on a w/w basis) and generated peptide scaffolds from solutions in which the unmodified and modified peptides were present in this ratio.

[4] = test system: human aortic endothelial cells (HAEC); test: HAEC attachment assay on peptide scaffolds; format: cell-based; details: after one hour; modified peptides as 9:1 blends with RAD16-I
Description: as §1

[5] = Gel formation by visual observation; format: physicochemical; details: 1% solution, standing overnight at room temperature, no PBS
Description: The peptides used in the examples are based on the self-assembling peptide RAD16-I. The peptide was modified to include a variety of peptide motifs previously identified as mediating various biological activities. Physicochemical and structural properties of the peptides were assessed using a variety of techniques. Peptide solubility in aqueous solution was tested. The ability of the peptides to self-assemble into higher order structures was examined. In particular, the ability of the peptides to form various secondary structures (e.g., β-sheet) was determined using circular dichroism. The ability of the peptides to self-assemble into nanofibers was evaluated using atomic force microscopy (AFM). Gel formation was assessed by visual observation and rheology.
Gel formation. Each peptide solution at 1% was used to assess hydrogel formation. […] For all the soluble peptides, gel formation was readily observed upon the addition of equal volumes of phosphate buffered saline (PBS).

[6] = Rheometry (dynamic frequency and time sweep); format: physicochemical
Description: Rheometry. Rheological assays were performed on a 50 mm parallel plate ARES strain controlled rheometer (Rheometric Scientific, NJ). Samples were dissolved in deionized water at a final concentration of 2.9 mM and sonicated for one hour the day prior to the analysis. A volume of 1 ml was loaded on the lower plate, and the upper plate was set to a gap size between 0.4-0.45 mm. Dynamic frequency sweep tests were performed in a range of frequencies from 100 to 0.1 radis. After the test, PBS was added around the lower plate in order to promote gelation. The peptide was allowed to gel for 10 min at room temperature before the test was performed once again. After a dynamic frequency sweep test, the behavior of samples over time was tested. A dynamic time sweep test was performed at 10 rad/s for 5 min.
Rheology. A dynamic strain sweep was first performed on RAD16-I to set the linear viscoelastic region of the test and to select a fixed strain for the dynamic frequency sweep tests (FIG. 19). This linear viscoelastic range is defined by constant moduli, G′ and G″. It is important to select a strain within this range to obtain reliable results (Schramm, 1994). The strain selected was 0.01 (dimensionless) and was applied in all assays.

[7] = test system: Liver progenitor cells; details: encapsulated cells; cited from earlier work

In the case of `CC(=O)N[C@@H](CCCNC(=N)N)C(=O)N[C@@H](C)C(=O)N[C@@H](CC(=O)O)C(=O)N[C@@H](C)C(=O)N[C@@H](CCCNC(=N)N)C(=O)N[C@@H](C)C(=O)N[C@@H](CC(=O)O)C(=O)N[C@@H](C)C(=O)N[C@@H](CCCNC(=N)N)C(=O)N[C@@H](C)C(=O)N[C@@H](CC(=O)O)C(=O)N[C@@H](C)C(=O)N[C@@H](CCCNC(=N)N)C(=O)N[C@@H](C)C(=O)N[C@@H](CC(=O)O)C(=O)N[C@@H](C)C(N)=O` [RAD16-I, AcN-(RADA)4-CONH2], the “laminin 1 and collagen IV deposition by HAEC” value [1] is reported as “significant enhancement of laminin 1 and collagen IV deposition”, the “nitric oxide (NO) release by HAEC” value [2] is reported as “promote NO release” and the “HAEC monolayer formation, scaffold of 100% peptide” value ([3]; 0.5% (w/v) peptide, no blending) is reported as “monolayer formation was observed”. For the same compound, the “HAEC monolayer formation and cobblestone morphology on gel systems” value ([3]; after 3 days in culture) was “less than on blended scaffolds or on Matrigel or collagen-I”, the “HAEC monolayer formation, peptide content 100%” value ([3]; scaffold of 100% peptide, 0.5% (w/v)) was “+¶” and the “HAEC attachment to the surface” value [4] was about 100%. The “Increased viscosity by visual inspection” value [5] was “Increased viscosity was observed”, the “increase of both moduli (G′, G″) upon addition of salts” value ([6]; PBS added, 10 minutes gelation) was “≈ 10 fold” and the “storage modulus G′” value ([6]; after addition of PBS, dynamic frequency sweep, strain 0.01, 2.9 mM peptide) was 2.5×10^3 Pa. For the same compound, the hepatocyte marker expression [7] was “expressed markers indicative of hepatocyte phenotype”.
